Results reported in patent US20180271853A1, “Method of Use for Inhibitors of Epidermal Growth Factor Receptor Variant III” (METASTAT, INC., priority 2015, published 2018).

Experiments:
[1] = target: T1, phosphoY1173-EGFRviii expressed in U87MG tumor cells (Homo sapiens, UniProt P00533, DELINS30-297G); experiment: Inhibition of phosphoY1173-EGFRviii in U87MG tumor cells engineered to express EGFR-viii (in-cell ELISA); format: cell-based; conditions: for activity against EGFR-viii: FIG. 1
T1 construct: expressed in transfected cells; host or cells: U87MG (ATCC), lentiviral infection, puromycin selection
Procedure: Cells stably expressing EGFR-WT or EGFR-viii were maintained in the presence of 0.5 ug/ml puromycin.
All EGFR inhibitors were purchased from Selleck Chemicals, Houston TX, at a concentration of 10 mM in DMSO. […] Serial dilution of compounds was prepared using DMSO at 100× the final concentration indicated and then diluted in cell media to the final concentration indicated.
Data are expressed as EC50 and were determined using an in-cell ELISA kit (Pierce).

EGFR-viii = EGFR-viii (Homo sapiens, UniProt P00533, DELINS30-297G); conditions: Ji, Zhao et al., 2006; Vivanco, Robins et al., 2012; cited from earlier work
[2] = tested on: tumors expressing EGFR-viii; conditions: cited from earlier work; for benefit for GBM in clinical studies: clinical studies evaluating reversible or covalent EGFR inhibitors in GBM

`C=CC(=O)Nc1ccc2ncnc(Nc3ccc(OCc4cccc(F)c4)c(Cl)c3)c2c1` [AST-1306] showed an EC50 ([1]; in-cell ELISA, FIG. 1, read-out: EC50 against EGFR-viii) of less than 50 nM.
For `C=CC(=O)Nc1cccc(Nc2nc(Nc3ccc(N4CCN(C(C)=O)CC4)cc3OC)ncc2C(F)(F)F)c1` [CO-1686], the “activity against EGFR-viii” value [1] was “weak activity”.
In the case of `C=CC(=O)Nc1cccc(Oc2nc(Nc3ccc(N4CCN(C)CC4)cc3)ncc2Cl)c1` [WZ3146], the “activity against EGFR-viii” value [1] is reported as “weak activity”.
In the case of `C=CC(=O)Nc1cccc(Sc2nc(Nc3ccc(N4CCN(C)CC4)cc3)ncc2Cl)c1` [WZ8040], the “activity against EGFR-viii” value [1] is reported as “weak activity”.
In the case of `COc1cc2ncnc(Nc3ccc(F)c(Cl)c3)c2cc1NC(=O)/C=C/CN1CCCCC1` [dacomitinib], the “inhibition of EGFR-viii (recent studies)” value (EGFR-viii) is given as “potent inhibitors of EGFR-viii”.
For `C#Cc1cccc(Nc2ncnc3cc(OCCOC)c(OCCOC)cc23)c1` [erlotinib], the “benefit for GBM in clinical studies” value [2] is listed as “failed to demonstrate significant benefit”.
For `CS(=O)(=O)CCNCc1ccc(-c2ccc3ncnc(Nc4ccc(OCc5cccc(F)c5)c(Cl)c4)c3c2)o1` [lapatinib], the “benefit for GBM in clinical studies” value [2] is given as “failed to demonstrate significant benefit” and the “cancer growth inhibition in clinical studies” value ([2]; clinical studies, GBM) is given as “insignificant cancer growth inhibition”.
